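Test compounds were applied to cells in 96-well plates for 48 hours at 5 doses. GI50 is the concentration that inhibits growth by half.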 The source made the active and inactive calls. Cut-off read from the data, not from the text of the source: active = GI50 up to about 1.1 µM and inactive = higher. Where a SMILES comes first, the peptide text is derived from it. The star is where a group is joined. Boc = CC(C)(C)OC(=O)*; OSu = O=C1CCC(=O)N1O*
Legend:
Assay in all cases: NCI anticancer screen, dose series, 48 h
SK-MEL-2 = test system: SK-MEL-2
HCC 2998 = test system: HCC 2998
UACC-62 = test system: UACC-62
OVCAR-5 = test system: OVCAR-5
SF-295 = test system: SF-295
MOLT-4 = test system: MOLT-4
OVCAR-3 = test system: OVCAR-3
UO-31 = test system: UO-31
UACC-257 = test system: UACC-257
NCI-H23 = test system: NCI-H23
M14 = test system: M14
ACHN = test system: ACHN
HOP-62 = test system: HOP-62
HCT-116 = test system: HCT-116
K562 = test system: K562
DU-145 = test system: DU-145
MDA-N = test system: MDA-N
HOP-92 = test system: HOP-92
MDA-MB-435 = test system: MDA-MB-435

Measured: GI50

c1ccc2c(c1)CCCc1cc3ccccc3nc1-2
inactive: SK-MEL-2 > 100 µM | HCC 2998 > 100 µM | UACC-62 > 100 µM | OVCAR-5 > 100 µM | SF-295 > 100 µM | MOLT-4 57.5 µM | OVCAR-3 > 100 µM | UO-31 > 100 µM | UACC-257 54.8 µM | NCI-H23 > 100 µM | M14 > 100 µM | ACHN > 100 µM | HOP-62 > 100 µM | HCT-116 > 100 µM | K562 > 100 µM

CC1=NN(c2cccc(Cl)c2)C(=N/c2nc3ccccc3s2)/C1=C\c1ccc(Cl)cc1
inactive: DU-145 34.2 µM | SK-MEL-2 17.9 µM | HCC 2998 16.4 µM | OVCAR-5 22.6 µM | SF-295 23.4 µM | MOLT-4 24.4 µM | OVCAR-3 21.7 µM | UO-31 23.9 µM | UACC-257 20.7 µM | NCI-H23 18.7 µM | M14 23.8 µM | ACHN 24.3 µM | HOP-62 21.5 µM | MDA-N 23.4 µM | HCT-116 16.9 µM | K562 29 µM | HOP-92 17.4 µM

CS(=O)(=O)Nc1ccc(Nc2ccnc3ccc4[nH]ccc4c23)cc1
inactive: DU-145 9.93 µM | MDA-MB-435 15.1 µM | SK-MEL-2 10.3 µM | HCC 2998 4.98 µM | UACC-62 14.3 µM | OVCAR-5 26.3 µM | SF-295 24.5 µM | MOLT-4 3.13 µM | OVCAR-3 10.3 µM | UO-31 29.7 µM | UACC-257 15.6 µM | NCI-H23 16.3 µM | M14 16.1 µM | ACHN 21.5 µM | HOP-62 13.9 µM | HCT-116 5.5 µM | K562 6.64 µM | HOP-92 8.36 µM

CN(C(=O)OC(C)(C)C)[C@H]1CCCC[C@H]1N1CCCC1
inactive: DU-145 > 100 µM | MDA-MB-435 > 100 µM | SK-MEL-2 > 100 µM | UACC-62 > 100 µM | OVCAR-5 > 100 µM | SF-295 > 100 µM | MOLT-4 > 100 µM | OVCAR-3 > 100 µM | UO-31 > 100 µM | UACC-257 53.7 µM | NCI-H23 > 100 µM | M14 > 100 µM | ACHN > 100 µM | HOP-62 > 100 µM | HCT-116 > 100 µM | K562 > 100 µM

COc1cc(C2c3[nH]c4ccc(F)cc4c3C[C@H]3COC(=O)N23)cc(OC)c1O (stereo not given in full)
inactive: DU-145 15.9 µM | SK-MEL-2 26.2 µM | HCC 2998 14.1 µM | UACC-62 12.1 µM | OVCAR-5 18.8 µM | SF-295 12.1 µM | MOLT-4 3.73 µM | OVCAR-3 13.4 µM | UO-31 12.6 µM | UACC-257 11.1 µM | NCI-H23 4.11 µM | M14 17 µM | ACHN 5.79 µM | HOP-62 5.71 µM | HCT-116 5.78 µM | K562 14.8 µM | HOP-92 15.8 µM

Cc1ccc(-c2cc(=O)c3cc(C)c(C)c(C(=O)O)c3o2)cc1N
inactive: SK-MEL-2 > 100 µM | UACC-62 > 100 µM | OVCAR-5 > 100 µM | SF-295 > 100 µM | MOLT-4 > 100 µM | OVCAR-3 > 100 µM | UO-31 > 100 µM | UACC-257 > 100 µM | NCI-H23 > 100 µM | M14 > 100 µM | ACHN > 100 µM | HCT-116 > 100 µM | K562 > 100 µM

O=C1C2CCCCC2C(=O)N1n1c(-c2ccccc2)n[nH]c1=O (stereo not given)
inactive: MDA-MB-435 > 100 µM | SK-MEL-2 > 100 µM | HCC 2998 > 100 µM | UACC-62 > 100 µM | OVCAR-5 > 100 µM | SF-295 > 100 µM | MOLT-4 > 100 µM | OVCAR-3 > 100 µM | UO-31 > 100 µM | UACC-257 > 100 µM | NCI-H23 > 100 µM | M14 > 100 µM | ACHN > 100 µM | HOP-62 > 100 µM | MDA-N > 100 µM | HCT-116 > 100 µM | K562 > 100 µM | HOP-92 > 100 µM

CCOc1ccncc1[N+](=O)[O-]
inactive: DU-145 > 100 µM | MDA-MB-435 > 100 µM | SK-MEL-2 > 100 µM | UACC-62 > 100 µM | OVCAR-5 > 100 µM | SF-295 > 100 µM | MOLT-4 > 100 µM | UO-31 > 100 µM | UACC-257 > 100 µM | NCI-H23 > 100 µM | M14 > 100 µM | ACHN > 100 µM | HOP-62 > 100 µM | MDA-N > 100 µM | HCT-116 > 100 µM | K562 > 100 µM

CC(C)(C)OC(=O)NC(Cc1ccc(O)cc1)C(=O)NC(CCCCN)C(=O)NC(Cc1ccc(O)cc1)C(=O)NC(CCCCN)C(=O)ON1C(=O)CCC1=O (stereo not given) (Boc-YKYK-OSu; configuration not given here)
inactive: SK-MEL-2 > 100 µM | HCC 2998 > 100 µM | UACC-62 > 100 µM | OVCAR-5 > 100 µM | MOLT-4 > 100 µM | UO-31 > 100 µM | UACC-257 > 100 µM | NCI-H23 > 100 µM | M14 > 100 µM | ACHN > 100 µM | HOP-62 > 100 µM | MDA-N > 100 µM | HCT-116 > 100 µM | K562 > 100 µM | HOP-92 > 100 µM

Source: ChEMBL document CHEMBL1201862, “PubChem BioAssay data set” (2004)
